In PMC11864979, “First-in-class ultralong-target-residence-time p38α inhibitors as a mitosis-targeted therapy for colorectal cancer” (Nature Cancer, 2025):
Where two headings read alike, the source gives them in different places.

Experiments:
Test in all cases: selectivity profiling in a panel of 340 wild-type kinases (Reaction Biology Europe)
Assay type in all cases: binding
[1] = biological target: T1, 340 wild-type kinases (Homo sapiens, UniProt Q13882)
T1 construct: purchased Reaction Biology Europe

[2] = biological target: T2, 340 wild-type kinases (Homo sapiens, UniProt Q8IWQ3)
T2 construct: purchased Reaction Biology Europe
T2 sequence (Q8IWQ3 1-736): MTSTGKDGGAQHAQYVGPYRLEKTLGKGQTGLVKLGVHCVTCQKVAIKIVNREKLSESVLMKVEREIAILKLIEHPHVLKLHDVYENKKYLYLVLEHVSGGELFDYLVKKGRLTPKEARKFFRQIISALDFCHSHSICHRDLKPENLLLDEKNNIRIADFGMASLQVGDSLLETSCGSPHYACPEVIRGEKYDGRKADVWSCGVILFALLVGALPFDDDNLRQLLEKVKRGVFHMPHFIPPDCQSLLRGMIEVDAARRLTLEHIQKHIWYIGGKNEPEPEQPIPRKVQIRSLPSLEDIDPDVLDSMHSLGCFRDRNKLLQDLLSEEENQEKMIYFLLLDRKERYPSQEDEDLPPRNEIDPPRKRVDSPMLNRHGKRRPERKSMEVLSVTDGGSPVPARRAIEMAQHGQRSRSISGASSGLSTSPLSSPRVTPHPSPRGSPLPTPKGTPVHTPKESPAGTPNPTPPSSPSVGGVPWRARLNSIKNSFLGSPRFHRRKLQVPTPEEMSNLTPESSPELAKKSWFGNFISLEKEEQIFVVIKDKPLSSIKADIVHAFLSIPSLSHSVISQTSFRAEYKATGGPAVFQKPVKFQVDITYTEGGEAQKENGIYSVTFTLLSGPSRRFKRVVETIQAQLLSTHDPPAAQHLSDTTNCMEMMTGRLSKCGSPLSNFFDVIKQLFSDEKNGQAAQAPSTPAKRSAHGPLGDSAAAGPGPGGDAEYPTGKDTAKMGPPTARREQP

[3] = biological target: T3, 340 wild-type kinases (Homo sapiens, UniProt Q15139)
T3 construct: purchased Reaction Biology Europe
T3 sequence (Q15139 1-912): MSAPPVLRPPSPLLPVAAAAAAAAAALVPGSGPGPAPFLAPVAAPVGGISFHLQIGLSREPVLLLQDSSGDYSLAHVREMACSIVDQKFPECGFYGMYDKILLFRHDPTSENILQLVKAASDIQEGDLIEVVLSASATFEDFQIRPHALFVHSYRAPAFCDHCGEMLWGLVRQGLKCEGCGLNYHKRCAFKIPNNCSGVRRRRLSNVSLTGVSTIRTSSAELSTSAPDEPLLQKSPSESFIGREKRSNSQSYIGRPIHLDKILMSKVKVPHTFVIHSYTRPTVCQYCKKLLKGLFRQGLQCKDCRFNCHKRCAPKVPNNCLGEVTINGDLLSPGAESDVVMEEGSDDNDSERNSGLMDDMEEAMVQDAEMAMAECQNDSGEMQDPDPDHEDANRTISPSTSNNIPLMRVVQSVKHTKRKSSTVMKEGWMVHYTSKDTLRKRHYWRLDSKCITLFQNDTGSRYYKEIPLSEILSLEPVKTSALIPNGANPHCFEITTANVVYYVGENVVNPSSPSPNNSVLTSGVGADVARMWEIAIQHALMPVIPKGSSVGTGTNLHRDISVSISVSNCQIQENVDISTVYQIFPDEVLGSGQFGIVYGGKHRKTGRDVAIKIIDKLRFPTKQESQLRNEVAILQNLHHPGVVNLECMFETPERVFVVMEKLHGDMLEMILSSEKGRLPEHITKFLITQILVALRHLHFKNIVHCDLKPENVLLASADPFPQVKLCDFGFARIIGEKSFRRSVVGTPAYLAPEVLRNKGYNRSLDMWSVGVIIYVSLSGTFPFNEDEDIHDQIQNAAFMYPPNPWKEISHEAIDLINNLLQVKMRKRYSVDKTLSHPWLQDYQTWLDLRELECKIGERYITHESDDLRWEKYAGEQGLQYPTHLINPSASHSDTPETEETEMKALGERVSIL

[4] = biological target: T4, 340 wild-type kinases (Homo sapiens, UniProt P42345)
T4 construct: purchased Reaction Biology Europe

[5] = biological target: T5, 340 wild-type kinases (Homo sapiens, UniProt O15530)
T5 construct: purchased Reaction Biology Europe
T5 sequence (O15530 1-556): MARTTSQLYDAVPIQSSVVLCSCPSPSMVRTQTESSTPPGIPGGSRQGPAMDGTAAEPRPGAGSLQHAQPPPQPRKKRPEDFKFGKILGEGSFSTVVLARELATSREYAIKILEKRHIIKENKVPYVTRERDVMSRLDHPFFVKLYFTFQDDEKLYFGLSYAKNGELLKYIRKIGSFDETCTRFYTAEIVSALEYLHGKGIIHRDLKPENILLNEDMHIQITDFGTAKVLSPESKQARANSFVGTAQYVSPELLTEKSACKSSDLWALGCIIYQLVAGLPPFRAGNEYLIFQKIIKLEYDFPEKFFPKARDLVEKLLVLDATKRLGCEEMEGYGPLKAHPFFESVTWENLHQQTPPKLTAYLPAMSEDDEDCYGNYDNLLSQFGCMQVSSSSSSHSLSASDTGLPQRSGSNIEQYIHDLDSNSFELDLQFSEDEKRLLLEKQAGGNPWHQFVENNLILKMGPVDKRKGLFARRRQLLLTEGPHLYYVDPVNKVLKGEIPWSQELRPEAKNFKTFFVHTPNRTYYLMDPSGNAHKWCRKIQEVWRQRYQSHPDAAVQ

T1 sequence (Q13882 whole entry): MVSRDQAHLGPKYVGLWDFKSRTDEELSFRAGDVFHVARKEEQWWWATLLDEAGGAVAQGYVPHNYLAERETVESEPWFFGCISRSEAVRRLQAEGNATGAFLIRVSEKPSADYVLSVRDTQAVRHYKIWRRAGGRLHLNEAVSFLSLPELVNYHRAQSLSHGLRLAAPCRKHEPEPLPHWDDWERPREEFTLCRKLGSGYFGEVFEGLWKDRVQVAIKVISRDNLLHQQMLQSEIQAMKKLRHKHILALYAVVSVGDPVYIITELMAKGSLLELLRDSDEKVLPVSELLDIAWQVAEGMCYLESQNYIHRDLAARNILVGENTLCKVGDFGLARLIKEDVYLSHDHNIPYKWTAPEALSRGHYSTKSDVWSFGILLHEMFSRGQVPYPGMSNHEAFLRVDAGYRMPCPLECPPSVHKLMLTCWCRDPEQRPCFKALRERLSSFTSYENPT

## CNC(=O)c1ccc2c(c1)C(=O)c1ccc(Nc3ccc(F)c(NC(=O)C4CC4)c3)cc1CC2 [Compound 2015]
[1]; 0.2 µM 2015, read-out: BRK residual activity
  remaining activity at 0.2 µM: 100%
[1]; 1 µM 2015, read-out: BRK residual activity
  remaining activity at 1 µM: 108%
[1]; BRK, 0.2 µM, read-out: residual activity
  remaining activity at 0.2 µM: 100%
[1]; BRK, 1 µM, read-out: residual activity
  remaining activity at 1 µM: 108%
[2]; 0.2 µM 2015, read-out: BRSK2 residual activity
  remaining activity at 0.2 µM: 103%
[2]; 1 µM 2015, read-out: BRSK2 residual activity
  remaining activity at 1 µM: 101%
[2]; BRSK2, 0.2 µM, read-out: residual activity
  remaining activity at 0.2 µM: 103%
[2]; BRSK2, 1 µM, read-out: residual activity
  remaining activity at 1 µM: 101%
[3]; 0.2 µM 2015, read-out: PKCmu residual activity
  remaining activity at 0.2 µM: 98.1%
[3]; 1 µM 2015, read-out: PKCmu residual activity
  remaining activity at 1 µM: 95.1%
[3]; PKCmu, 0.2 µM, read-out: residual activity
  remaining activity at 0.2 µM: 98.1%
[3]; PKCmu, 1 µM, read-out: residual activity
  remaining activity at 1 µM: 95.1%
[4]; 0.2 µM 2015, read-out: MTOR residual activity
  remaining activity at 0.2 µM: 97.9%
[4]; 1 µM 2015, read-out: MTOR residual activity
  remaining activity at 1 µM: 101%
[4]; MTOR, 0.2 µM, read-out: residual activity
  remaining activity at 0.2 µM: 97.9%
[4]; MTOR, 1 µM, read-out: residual activity
  remaining activity at 1 µM: 101%
[5]; 0.2 µM 2015, read-out: PDK1 residual activity
  remaining activity at 0.2 µM: 107%
[5]; 1 µM 2015, read-out: PDK1 residual activity
  remaining activity at 1 µM: 93.7%
[5]; PDK1, 0.2 µM, read-out: residual activity
  remaining activity at 0.2 µM: 107%
[5]; PDK1, 1 µM, read-out: residual activity
  remaining activity at 1 µM: 93.7%
